Test results: patent publication US20140005163A1 (NOVARTIS AG, priority 2010, published 2014)
≈ marks a conversion by molar mass, not a printed value. Where two headings read alike, the source gives them in different places.

Tests used:
[1] = Solubility at pH 6.8; format: physicochemical
From the text: The physicochemical properties of relevance for the absorption of the compound, such as the solubility and the membrane permeability, especially at a pH close to neutral pH can be measured using the procedure as described by L. ZHOU et al. in JOURNAL OF PHARMACEUTICAL SCIENCES, VOL. 96, NO. 11, p. 3052-3071 (2007) for the solubility at pH 6.8 and the procedure as described by F. Wohnsland and B. Faller in Journal of Medicinal Chemistry Vol 44, p. 923-930 (2001) for the Parallel Artificial Membrane Permeability Assay (PAMPA) at pH 6.8.

[2] = molecular target: T1, PI3K alpha (Homo sapiens, UniProt P42336); test: PI3K alpha kinase assay (Kinase-Glo luminescence); format: biochemical
T1 construct: p85(iSH2) fusion partner (see partner chain) (N); His tag (C); made in house; host or cells: baculovirus; Tn5 (Trichoplusia ni) or TiniPro insect cells
Procedure, shortened: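 Luminescent ATP-depletion assay (Kinase-Glo) with 10 nM PI3Kα and 10 μg/mL phosphatidylinositol as lipid substrate at 1 μM ATP. Incubation lasts 60 min at room temperature.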

[3] = molecular target: T2, PI3K delta (Homo sapiens, UniProt O00329); test: PI3K delta kinase assay (Kinase-Glo luminescence); format: biochemical
T2 construct: for the full-length p110-d subunit are generated and fused by overlapping PCR; p85(iSH2) fusion partner (see partner chain) (N); His tag (C); made in house; host or cells: baculovirus; Tn5 (Trichoplusia ni) or TiniPro insect cells
Procedure, shortened: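 Inhibition is derived from luminescent detection of unconsumed ATP. The reaction runs for one hour at ambient temperature and contains the δ isoform fusion protein, phosphatidylinositol substrate and low (1 μM) ATP. Eight compound concentrations are tested in single, and a 4-parameter logistic model is used to calculate IC50.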

[4] = system: PKB Ser473 phosphorylation in Rat1-myr-HA-p110 alpha cells; test: Reverse protein array assay, PKB Ser473 phosphorylation in Rat1-myr-p110 alpha cells; format: cell-based; settings: 0.5 h, pAkt Ser473, 30 minutes compound incubation, read-out: p-PKB IC50
Procedure, shortened: (§1)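 Lysates were arrayed at four dilutions, and phospho-PKB Ser473 was quantified by relative fluorescence signal. They came from Rat1-myr-HA-p110 alpha, beta or delta cells exposed for 30 min at 37 °C to an 8-point compound series with 0.2% DMSO constant.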

[5] = system: PKB Ser473 phosphorylation in Rat1-myr-HA-p110 delta cells; test: Reverse protein array assay, PKB Ser473 phosphorylation in Rat1-myr-p110 delta cells; format: cell-based; settings: read-out: p-PKB IC50
Procedure, shortened: as §1

[6] = system: S6 Ribosomal Protein phosphorylation Ser235/236 in TSC1 null mouse embryo fibroblast (MEF) cells; test: Reverse protein array assay, S6 Ribosomal Protein phosphorylation Ser235/236 in TSC1 null MEF cells; format: cell-based; settings: 1 h, pS6 ribosomal protein Ser235/236, 60 minutes incubation, read-out: p-S6 IC50
Procedure, shortened: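 TSC1−/− MEFs, seeded and held ≥20 h at 37 °C/5% CO2, were exposed to 8-step serial compound dilutions (0.02% DMSO final; DMSO vehicle control) for 60 min at 37 °C. Cells were then lysed on ice for 10 min and lysates spotted onto reverse protein array chips.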

[7] = molecular target: T3, mTOR (Homo sapiens, UniProt P42345); test: Biochemical assay for m-TOR by TR-FRET; settings: 8 μM ATP, 400 nM GFP-4EBP1, 0.5 nM mTOR
T3 construct: purchased Invitrogen Corporation (Carlsbad/CA, USA) PV4753
Procedure, shortened: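 mTOR (0.5 nM) was incubated at rt with ATP (8 μM final) and GFP-4EBP1 (400 nM final) in 50 mM HEPES pH 7.5, 10 mM MnCl2, 50 mM NaCl, 1 mM EGTA, 1 mM DTT. EDTA stop with Tb3+-anti-p4EBP1 [pThr46] antibody (0.5 nM); TR-FRET read 15 min later.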

[8] = system: PKB Ser473 phosphorylation in Rat1-myr-HA-p110 beta cells; test: Reverse protein array assay, PKB Ser473 phosphorylation in Rat1-myr-p110 beta cells; format: cell-based; settings: 0.5 h, pAkt Ser473, 30 minutes incubation, read-out: p-PKB IC50
Procedure, shortened: as §1

[9] = pH 6.8, aqueous buffer, thermodynamic from solid, read-out: solubility

T2 sequence (O00329 with tags, fused parts or gaps limits assumed): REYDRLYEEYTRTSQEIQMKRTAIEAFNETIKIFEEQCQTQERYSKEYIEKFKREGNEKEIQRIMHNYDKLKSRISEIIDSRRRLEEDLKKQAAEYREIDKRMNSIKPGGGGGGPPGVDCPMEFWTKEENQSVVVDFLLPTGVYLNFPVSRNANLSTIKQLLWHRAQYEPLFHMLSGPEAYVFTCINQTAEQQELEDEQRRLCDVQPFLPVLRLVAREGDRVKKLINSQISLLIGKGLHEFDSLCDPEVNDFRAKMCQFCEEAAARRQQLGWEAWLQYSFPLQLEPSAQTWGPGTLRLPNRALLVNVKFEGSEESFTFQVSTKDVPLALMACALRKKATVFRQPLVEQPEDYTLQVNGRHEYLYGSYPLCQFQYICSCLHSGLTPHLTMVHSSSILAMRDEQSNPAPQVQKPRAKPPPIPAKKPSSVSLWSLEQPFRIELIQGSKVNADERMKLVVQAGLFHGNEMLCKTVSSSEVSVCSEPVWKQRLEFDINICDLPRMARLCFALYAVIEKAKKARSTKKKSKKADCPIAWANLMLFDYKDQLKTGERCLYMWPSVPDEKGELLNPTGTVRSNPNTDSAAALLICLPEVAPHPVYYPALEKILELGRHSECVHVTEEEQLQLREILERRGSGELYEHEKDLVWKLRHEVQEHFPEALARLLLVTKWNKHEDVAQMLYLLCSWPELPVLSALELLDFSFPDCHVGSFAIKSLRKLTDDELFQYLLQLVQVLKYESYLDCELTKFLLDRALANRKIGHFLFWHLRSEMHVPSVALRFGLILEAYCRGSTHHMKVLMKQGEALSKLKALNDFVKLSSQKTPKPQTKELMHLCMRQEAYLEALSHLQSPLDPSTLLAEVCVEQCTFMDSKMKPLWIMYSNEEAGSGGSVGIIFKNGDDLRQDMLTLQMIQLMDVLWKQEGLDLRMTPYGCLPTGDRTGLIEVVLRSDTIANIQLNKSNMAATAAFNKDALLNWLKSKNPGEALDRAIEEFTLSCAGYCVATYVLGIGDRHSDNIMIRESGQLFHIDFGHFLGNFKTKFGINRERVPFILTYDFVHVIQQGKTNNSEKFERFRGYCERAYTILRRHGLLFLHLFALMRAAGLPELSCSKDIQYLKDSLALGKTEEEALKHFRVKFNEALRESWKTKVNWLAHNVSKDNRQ
T1 sequence (P42336 with tags, fused parts or gaps limits assumed): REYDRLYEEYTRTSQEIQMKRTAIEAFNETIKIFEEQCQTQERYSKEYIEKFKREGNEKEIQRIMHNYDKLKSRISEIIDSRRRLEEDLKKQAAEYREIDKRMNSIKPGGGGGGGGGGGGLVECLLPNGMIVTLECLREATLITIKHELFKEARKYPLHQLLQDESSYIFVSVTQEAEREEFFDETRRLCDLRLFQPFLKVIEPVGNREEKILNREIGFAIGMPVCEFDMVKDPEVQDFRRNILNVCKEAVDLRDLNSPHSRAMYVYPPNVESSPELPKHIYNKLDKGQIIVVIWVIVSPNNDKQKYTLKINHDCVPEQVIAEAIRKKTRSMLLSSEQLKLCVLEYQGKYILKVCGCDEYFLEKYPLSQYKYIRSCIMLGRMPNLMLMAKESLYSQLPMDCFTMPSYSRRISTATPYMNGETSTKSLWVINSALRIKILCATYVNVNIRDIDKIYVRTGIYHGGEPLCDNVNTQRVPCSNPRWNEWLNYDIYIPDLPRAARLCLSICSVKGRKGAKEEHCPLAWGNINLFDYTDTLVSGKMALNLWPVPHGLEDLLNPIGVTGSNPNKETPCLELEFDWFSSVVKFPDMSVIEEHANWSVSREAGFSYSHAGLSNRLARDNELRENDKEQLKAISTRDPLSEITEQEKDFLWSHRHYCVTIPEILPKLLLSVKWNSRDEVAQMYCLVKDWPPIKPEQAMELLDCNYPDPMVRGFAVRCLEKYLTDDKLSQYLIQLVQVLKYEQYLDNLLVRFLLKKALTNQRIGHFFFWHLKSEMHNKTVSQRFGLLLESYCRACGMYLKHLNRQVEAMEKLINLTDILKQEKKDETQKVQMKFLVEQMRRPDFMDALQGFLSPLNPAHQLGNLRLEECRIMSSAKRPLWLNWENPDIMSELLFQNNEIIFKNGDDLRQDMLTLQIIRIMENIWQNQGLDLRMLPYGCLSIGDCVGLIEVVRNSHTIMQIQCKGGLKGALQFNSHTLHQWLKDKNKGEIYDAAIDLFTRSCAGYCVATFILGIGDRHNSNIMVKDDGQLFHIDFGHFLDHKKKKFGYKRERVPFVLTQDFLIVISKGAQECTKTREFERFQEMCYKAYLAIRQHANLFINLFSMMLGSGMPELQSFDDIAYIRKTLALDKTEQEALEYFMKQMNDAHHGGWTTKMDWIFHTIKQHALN
T3 sequence (P42345 1360-2549 limits assumed): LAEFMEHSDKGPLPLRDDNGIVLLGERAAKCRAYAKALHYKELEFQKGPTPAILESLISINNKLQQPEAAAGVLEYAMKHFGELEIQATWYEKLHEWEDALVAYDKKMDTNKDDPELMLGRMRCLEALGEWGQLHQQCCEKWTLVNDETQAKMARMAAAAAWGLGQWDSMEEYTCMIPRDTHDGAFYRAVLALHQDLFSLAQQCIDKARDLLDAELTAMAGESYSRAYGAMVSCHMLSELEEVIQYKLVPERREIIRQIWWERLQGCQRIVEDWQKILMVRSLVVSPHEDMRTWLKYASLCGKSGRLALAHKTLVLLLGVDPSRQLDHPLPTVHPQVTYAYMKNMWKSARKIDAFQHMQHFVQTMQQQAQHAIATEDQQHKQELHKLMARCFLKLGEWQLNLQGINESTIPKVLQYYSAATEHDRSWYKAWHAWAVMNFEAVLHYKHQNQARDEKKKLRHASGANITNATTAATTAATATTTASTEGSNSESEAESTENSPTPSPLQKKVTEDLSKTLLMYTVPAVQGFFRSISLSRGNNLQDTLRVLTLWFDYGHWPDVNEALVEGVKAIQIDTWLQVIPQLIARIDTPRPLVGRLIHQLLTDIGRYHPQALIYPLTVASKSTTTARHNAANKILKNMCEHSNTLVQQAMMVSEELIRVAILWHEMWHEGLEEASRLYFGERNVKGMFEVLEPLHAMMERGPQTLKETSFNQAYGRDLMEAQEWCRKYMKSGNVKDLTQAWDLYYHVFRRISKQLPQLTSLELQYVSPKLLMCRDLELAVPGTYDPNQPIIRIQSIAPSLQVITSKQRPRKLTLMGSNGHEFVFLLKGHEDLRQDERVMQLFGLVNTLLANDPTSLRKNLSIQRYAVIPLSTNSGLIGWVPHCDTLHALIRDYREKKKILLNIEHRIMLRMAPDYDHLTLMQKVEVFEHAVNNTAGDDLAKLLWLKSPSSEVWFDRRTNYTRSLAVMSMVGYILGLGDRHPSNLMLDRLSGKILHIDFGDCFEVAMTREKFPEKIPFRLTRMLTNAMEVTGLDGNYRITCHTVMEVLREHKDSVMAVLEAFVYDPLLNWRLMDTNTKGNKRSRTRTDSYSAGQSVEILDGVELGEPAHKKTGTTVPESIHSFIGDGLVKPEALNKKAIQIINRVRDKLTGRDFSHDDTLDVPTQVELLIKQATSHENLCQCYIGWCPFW

SMILES	solubility [1, 9] [µg/mL]	IC50 [2] [nM]	IC50 [3] [nM]	IC50 [4] [nM]	IC50 [5] [nM]	IC50 [7] [nM]	IC50 [8] [nM]	solubility ([1]; pH 6.8) [µg/mL]	IC50 [6] [nM]
COCCn1nc(C)c(-n2c(=O)n(C)c3cnc4ccc(-c5ccc(-n6cccn6)cc5)cc4c32)c1C [Example 51.5]	14 (≈ 28.4 µM)	110	362	17	516	–	–	–	25
Cc1nn(C)cc1-n1c(=O)n(C)c2cnc3ccc(-c4ccc(N5CC[C@H](O)C5)nc4)cc3c21 [Example 212.2, 1-(1,3-Dimethyl-1H-pyrazol-4-yl)-8-[6-((S)-3-hydroxy-pyrrolidin-1-yl)-pyridin-3-yl]-3-methyl-1,3-dihydro-imidazo[4,5-c]quinolin-2-one]	43 (≈ 94.4 µM)	215	647	115	–	92	185	–	–
Cc1nn(C)cc1-n1c(=O)n(C)c2cnc3ccc(-c4cnc5c(c4)nc(C)n5C)cc3c21 [Example 73, 8-(2,3-Dimethyl-3H-imidazo[4,5-b]pyridin-6-yl)-1-(1,3-dimethyl-1H-pyrazol-4-yl)-3-methyl-1,3-dihydro-imidazo[4,5-c]quinolin-2-one]	41 (≈ 93.5 µM)	173	372	337	530	160	417	–	–
CN(C)c1ccc(-c2ccc3ncc4c(c3c2)n(-c2ccnn2C)c(=O)n4C)cn1 [Example 4.7, 8-(6-Dimethylamino-pyridin-3-yl)-3-methyl-1-(2-methyl-2H-pyrazol-3-yl)-1,3-dihydro-imidazo[4,5-c]quinolin-2-one]	3 (≈ 7.51 µM)	461	–	134	547	505	121	–	–
CCc1ncc(-c2ccc3ncc4c(c3c2)n(-c2cn(C)nc2C)c(=O)n4C)cc1OC(C)C [Example 186, 1-(1,3-Dimethyl-1H-pyrazol-4-yl)-8-(6-ethyl-5-isopropoxy-pyridin-3-yl)-3-methyl-1,3-dihydro-imidazo[4,5-c]quinolin-2-one]	8 (≈ 17.5 µM)	–	–	< 5	27	56	34	–	1.02
CCN(C)c1ccc(-c2ccc3ncc4c(c3c2)n(-c2cn(C(C)C)nc2C)c(=O)n4C)cn1 [Example 98.2, 8-[6-(Ethyl-methyl-amino)-pyridin-3-yl]-1-(1-isopropyl-3-methyl-1H-pyrazol-4-yl)-3-methyl-1,3-dihydro-imidazo[4,5-c]quinolin-2-one]	75 (≈ 165 µM)	118	101	10	59	30	18	–	–
Cc1nn(C)cc1-n1c(=O)n(C)c2cnc3ccc(-c4cnc5c(c4)n(C)c(=O)n5C)cc3c21 [Example 67, 8-(1,3-Dimethyl-2-oxo-2,3-dihydro-1H-imidazo[4,5-b]pyridin-6-yl)-1-(1,3-dimethyl-1H-pyrazol-4-yl)-3-methyl-1,3-dihydro-imidazo[4,5-c]quinolin-2-one]	–	–	–	166	298	–	171	2 (≈ 4.4 µM)	–
CCOc1ccc(-c2ccc3ncc4[nH]c(=O)n(-c5cn(CC(=O)N6CCN(C)CC6)nc5C)c4c3c2)cn1 [Example 133, 8-(6-Ethoxy-pyridin-3-yl)-1-{3-methyl-1-[2-(4-methyl-piperazin-1-yl)-2-oxo-ethyl]-1H-pyrazol-4-yl}-1,3-dihydro-imidazo[4,5-c]quinolin-2-one]	72 (≈ 137 µM)	938	932	–	–	13	–	–	508
Cc1nn(C)cc1-n1c(=O)n(C)c2cnc3ccc(-c4cnc(N5CCCC5)nc4)cc3c21 [Example 140.2, 1-(1,3-Dimethyl-1H-pyrazol-4-yl)-3-methyl-8-(2-pyrrolidin-1-yl-pyrimidin-5-yl)-1,3-dihydro-imidazo[4,5-c]quinolin-2-one]	–	–	–	29	62	–	36	2 (≈ 4.54 µM)	6

Continued, in another order:

solubility [1, 9] [µg/mL]	IC50 [2] [nM]	IC50 [3] [nM]	IC50 [4] [nM]	IC50 [5] [nM]	IC50 [7] [nM]	IC50 [8] [nM]	solubility ([1]; pH 6.8) [µg/mL]	SMILES	IC50 [6] [nM]
37 (≈ 81.4 µM)	266	–	–	–	–	–	–	Cc1nn(CC(=O)N(C)C)c(C)c1-n1c(=O)n(C)c2cnc3ccc(-c4ccccc4)cc3c21 [Example 37.4, 2-[3,5-Dimethyl-4-(3-methyl-2-oxo-8-phenyl-2,3-dihydro-imidazo[4,5-c]quinolin-1-yl)-pyrazol-1-yl]-N,N-dimethyl-acetamide]	844
21 (≈ 46.8 µM)	–	–	13	22	7	16	–	Cn1cc(-n2c(=O)n(C)c3cnc4ccc(-c5cncc(C(C)(C)O)c5)cc4c32)c(Cl)n1 [Example 215.3, 1-(3-Chloro-1-methyl-1H-pyrazol-4-yl)-8-[5-(1-hydroxy-1-methyl-ethyl)-pyridin-3-yl]-3-methyl-1,3-dihydroimidazo[4,5-c]quinolin-2-one]	1
61 (≈ 165 µM)	–	–	303	–	–	725	–	Cc1nn(C)cc1-n1c(=O)n(C)c2cnc3ccc(-c4ccccn4)cc3c21 [Example 114, 1-(1,3-Dimethyl-1H-pyrazol-4-yl)-3-methyl-8-pyridin-2-yl-1,3-dihydro-imidazo[4,5-c]quinolin-2-one]	–
10 (≈ 22.6 µM)	55	72	12	43	22	16	–	CCN(C)c1ccc(-c2ccc3ncc4c(c3c2)n(-c2cn(CC)nc2C)c(=O)n4C)cn1 [Example 98.3, 8-[6-(Ethyl-methyl-amino)-pyridin-3-yl]-1-(1-ethyl-3-methyl-1H-pyrazol-4-yl)-3-methyl-1,3-dihydro-imidazo[4,5-c]quinolin-2-one]	–
14 (≈ 31.1 µM)	–	–	10	7	< 3	6	–	COCc1cc(-c2ccc3ncc4c(c3c2)n(-c2cn(C)nc2Cl)c(=O)n4C)cnc1N [Example 168.3, 8-(6-Amino-5-methoxymethyl-pyridin-3-yl)-1-(3-chloro-1-methyl-1H pyrazol-4-yl)-3-methyl-1,3-dihydro-imidazo[4,5-c]quinolin-2-one]	< 0.5
74 (≈ 168 µM)	785	386	330	–	494	–	–	Cc1nn(C)cc1-n1c(=O)n(C)c2cnc3ccc(-c4ccnc(N(C)C(C)C)c4)cc3c21 [Example 130, 1-(1,3-Dimethyl-1H-pyrazol-4-yl)-8-[2-(isopropyl-methyl-amino)-pyridin-4-yl]-3-methyl-1,3-dihydro-imidazo[4,5-c]quinolin-2-one]	–
18 (≈ 42.4 µM)	210	167	589	–	734	–	–	Cn1nccc1-n1c(=O)n(C)c2cnc3ccc(-c4ccc(C(F)(F)F)nc4)cc3c21 [Example 8.1, 3-Methyl-1-(2-methyl-2H-pyrazol-3-yl)-8-(6-trifluoromethyl-pyridin-3-yl)-1,3-dihydro-imidazo[4,5-c]quinolin-2-one]	–
> 485	–	–	371	895	–	995	–	CCNC(=O)c1cc(-c2ccc3ncc4c(c3c2)n(-c2c(C)nn(C)c2C)c(=O)n4C)cnc1NC [Example 242.2, N-Ethyl-2-methylamino-5-[3-methyl-2-oxo-1-(1,3,5-trimethyl-1H-pyrazol-4-yl)-2,3-dihydro-1H-imidazo[4,5-c]quinolin-8-yl]-nicotinamide]	88
